Experiments:
Format in all cases: cell-based
[1] = molecular target: T1, KRAS (Homo sapiens, UniProt P01116); assay: KRASamp MSD assay; conditions: KE39 (KRAS amplified) cells, treated with test compounds for 24 hr, MSD readout of KRAS degradation
T1 construct: endogenous in cells; host or cells: KE39 (KRAS amplified) cells
Procedure, shortened: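 Degradation DC50 derived by curve fitting, with KRAS levels quantified by MSD electrochemiluminescence (capture/detection antibodies, recombinant WT KRAS standard). Lysates prepared from KE39 cells (KRAS amplified) exposed to test compounds for 24 hr.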

[2] = molecular target: T2, KRAS G12D (Homo sapiens, UniProt P01116, G12D); assay: KRAS G12D HiBit assay; conditions: AsPc-1-KRAS (G12D)-HiBit-KI cell, compound treatment for 24 hours, class symbols; for DC50: absolute DC50
T2 construct: AsPc-1-KRAS (G12D)-HiBit-KI cell (Pharmaron); host or cells: AsPc-1-KRAS (G12D)-HiBit-KI cells (HiBiT knock-in at the endogenous KRAS locus)
T2 sequence (P01116 1-188 isoform P01116-2 G12D): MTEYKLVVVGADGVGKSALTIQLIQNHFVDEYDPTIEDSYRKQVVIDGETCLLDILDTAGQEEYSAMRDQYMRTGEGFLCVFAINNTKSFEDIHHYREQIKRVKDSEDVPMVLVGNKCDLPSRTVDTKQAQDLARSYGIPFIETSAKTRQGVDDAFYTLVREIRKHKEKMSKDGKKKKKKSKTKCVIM
Procedure, shortened: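 HiBiT luminescence, detected by adding lytic buffer, substrate and LgBiT protein, served as the KRAS G12D read-out. Compounds, serially diluted 3-fold over 10 points from 0.3 mM DMSO stock, were on cells for 24 h; percent inhibition normalized to cells given 0.1% DMSO only.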

[3] = molecular target: T3, KRAS G12V (Homo sapiens, UniProt P01116, G12V); assay: KRAS G12V HiBit assay; conditions: SW620-KRAS (G12V)-HiBit-KI cells, compound treatment for 24 hours, class symbols
T3 construct: SW620-KRAS (G12V)-HiBit-KI cell (Pharmaron); host or cells: SW620-KRAS (G12V)-HiBit-KI cells (HiBiT knock-in at the endogenous KRAS locus)
T3 sequence (P01116 1-188 isoform P01116-2 G12V): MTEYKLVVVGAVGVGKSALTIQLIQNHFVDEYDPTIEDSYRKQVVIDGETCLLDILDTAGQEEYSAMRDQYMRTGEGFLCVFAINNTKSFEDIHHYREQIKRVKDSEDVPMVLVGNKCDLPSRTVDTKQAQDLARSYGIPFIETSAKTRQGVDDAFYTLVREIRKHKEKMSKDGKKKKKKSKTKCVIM
Procedure, shortened: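 Luminescence from lytic Nano-Glo HiBiT detection with LgBiT read KRAS G12V levels after 24 h compound exposure. Dilutions were 10-point, 3-fold, from a 0.3 mM DMSO stock. Degradation activity was normalised to cells given 0.1% DMSO alone.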

T1 sequence (P01116 1-188 isoform P01116-2): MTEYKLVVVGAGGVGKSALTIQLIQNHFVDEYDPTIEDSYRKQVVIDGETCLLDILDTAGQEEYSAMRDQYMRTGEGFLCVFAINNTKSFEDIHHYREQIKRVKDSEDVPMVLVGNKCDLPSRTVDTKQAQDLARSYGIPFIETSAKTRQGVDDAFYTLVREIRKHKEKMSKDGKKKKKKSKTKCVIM

| SMILES | DC50 [1] [nM] | DC50 [2] [nM] | DC50 [3] [nM] | Dmax [2] [%] |
| --- | --- | --- | --- | --- |
| CCc1c(F)ccc2cc(O)cc(-c3ncc4c(N5CCC[C@@](C)(O)C5)nc(OC[C@@]56CCCN5[C@H](COC(=O)N5CCC(C7(N8CCC(c9ccc%10c(c9)n(C)c(=O)n%10C9CCC(=O)NC9=O)CC8)CC7)CC5)CC6)nc4c3F)c12 (stereo partly drawn) [Compound 399, ((3S,7aS)-7a-(((7-(8-Ethyl-7-fluoro-3-hydroxynaphthalen-1-yl)-8-fluoro-4-((R)-3-hydroxy-3-methylpiperidin-1-yl)pyrido[4,3-d]pyrimidin-2-yl)oxy)methyl)hexahydro-1H-pyrrolizin-3-yl)methyl 4-(1-(4-(1-(2,6-dioxopiperidin-3-yl)-3-methyl-2-oxo-2,3-dihydro-1H-benzo[d]imidazol-5-yl)piperidin-1-yl)cyclopropyl) piperidine-1-carboxylate] | < 1 | < 100 | < 10 |  |
| C#Cc1c(F)ccc2cc(O)cc(-c3ncc4c(N5CCC[C@@](C)(O)C5)nc(OC[C@@]56CCCN5[C@H](COC(=O)N5CCC(COC7CN(c8ccc9c(c8)n(C)c(=O)n9C8CCC(=O)NC8=O)C7)CC5)CC6)nc4c3F)c12 (stereo partly shown) [Compound 132] | 1 to 10 | < 100 | < 10 |  |
| CCc1c(F)ccc2cc(O)cc(-c3ncc4c(N5CCC[C@@](C)(O)C5)nc(OC[C@@]56CCCN5[C@H](COC(=O)N5CCC(C#CC7CCN(c8ccc9c(c8)n(C)c(=O)n9C8CCC(=O)NC8=O)CC7)CC5)CC6)nc4c3F)c12 (stereo partly drawn) [Compound 500, [(3S,7aS)-7a-({[7-(8-ethyl-7-fluoro-3-hydroxynaphthalen-1-yl)-8-fluoro-4-[(3R)-3-hydroxy-3-methylpiperidin-1-yl]pyrido[4,3-d]pyrimidin-2-yl]oxy}methyl)-hexahydropyrrolizin-3-yl]methyl 4-(2-{1-[1-(2,6-dioxopiperidin-3-yl)-3-methyl-2-oxo-1,3-benzodiazol-5-yl]piperidin-4-yl}ethynyl) piperidine-1-carboxylate] | < 1 | < 100 | < 10 |  |
| C#Cc1c(F)ccc2cc(O)cc(-c3ncc4c(N5CCC[C@@](C)(O)C5)nc(OCC5(CN6CCC(N7CCC(c8cccc9c(C%10CCC(=O)NC%10=O)nn(C)c89)CC7)CC6)CC5)nc4c3F)c12 (stereo partly shown) [Compound 77] | 1 to 10 | < 100 | < 10 |  |
| C#Cc1c(F)ccc2cccc(-c3ncc4c(N5CCC[C@@](C)(O)C5)nc(OCC5(CN6CC7(C6)CN(c6ccc8c(c6)n(C)c(=O)n8C6CCC(=O)NC6=O)C7)CC5)nc4c3F)c12 (stereo partly shown) [Compound 31] | ≥ 10 | > 300 | > 100 |  |
| CCc1c(F)ccc2cc(O)cc(-c3ncc4c(N5CCC[C@@](C)(O)C5)nc(OC[C@@]56CCCN5[C@H](COC(=O)NC5CCN(C7CCN(c8ccc9c(c8)n(C)c(=O)n9C8CCC(=O)NC8=O)CC7)CC5)CC6)nc4c3F)c12 (stereo partly drawn) [Compound 427, ((3S,7aS)-7a-(((7-(8-ethyl-7-fluoro-3-hydroxynaphthalen-1-yl)-8-fluoro-4-((R)-3-hydroxy-3-methylpiperidin-1-yl)pyrido[4,3-d]pyrimidin-2-yl)oxy)methyl)hexahydro-1H-pyrrolizin-3-yl)methyl (1′-(1-(2,6-dioxopiperidin-3-yl)-3-methyl-2-oxo-2,3-dihydro-1H-benzo[d]imidazol-5-yl)-[1,4′-bipiperidin]-4-yl)carbamate] | ≥ 10 | < 100 | 10 to 100 |  |
| C#Cc1c(F)ccc2cc(O)cc(-c3ccc4c(N5CCC[C@@](C)(O)C5)nc(OCC5(CN6CCN(CC7CCN(c8ccc9c(c8)n(C)c(=O)n9C8CCC(=O)NC8=O)CC7)CC6)CC5)nc4c3F)c12 (stereo partly shown) [Compound 11] | 1 to 10 | > 300 | < 10 |  |
| CCc1cccc2cc(O)cc(-c3ncc4c(N5CCC[C@@](C)(O)C5)nc(OC[C@@]56CCCN5[C@H](COC(=O)N5CCC7(CC5)CC(N5CCC(c8ccc9c(c8)n(C)c(=O)n9C8CCC(=O)NC8=O)CC5)C7)CC6)nc4c3F)c12 (stereo partly drawn) [Compound 468, ((3S,7aS)-7a-(((7-(8-ethyl-3-hydroxynaphthalen-1-yl)-8-fluoro-4-((R)-3-hydroxy-3-methylpiperidin-1-yl)pyrido[4,3-d]pyrimidin-2-yl)oxy)methyl)hexahydro-1H-pyrrolizin-3-yl)methyl 2-(4-(1-(2,6-dioxopiperidin-3-yl)-3-methyl-2-oxo-2,3-dihydro-1H-benzo[d]imidazol-5-yl)piperidin-1-yl)-7-azaspiro[3.5]nonane-7-carboxylate] | < 1 | < 100 | < 10 |  |
| CCc1c(F)ccc2cc(O)cc(-c3ncc4c(N5CCC[C@@](C)(O)C5)nc(OC[C@]56CCCN5[C@@H](COC(=O)N5CCC(CN7CCC(c8cc9c(cc8F)n(C8CCC(=O)NC8=O)c(=O)n9C)CC7)CC5)CC6)nc4c3F)c12 (stereo partly drawn) [Compound 425, ((3R,7aR)-7a-(((7-(8-ethyl-7-fluoro-3-hydroxynaphthalen-1-yl)-8-fluoro-4-((R)-3-hydroxy-3-methylpiperidin-1-yl)pyrido[4,3-d]pyrimidin-2-yl)oxy)methyl)hexahydro-1H-pyrrolizin-3-yl)methyl 4-((4-(1-(2,6-dioxopiperidin-3-yl)-6-fluoro-3-methyl-2-oxo-2,3-dihydro-1H-benzo[d]imidazol-5-yl)piperidin-1-yl)methyl)piperidine-1-carboxylate] | < 1 | < 100 | < 10 |  |
| CCc1c(F)ccc2cc(O)cc(-c3ncc4c(N5CCC[C@@](C)(O)C5)nc(OC[C@@]56CCCN5[C@H](COC(=O)N5CCC(CN7CCC(c8ccc9c(c8F)n(C)c(=O)n9C8CCC(=O)NC8=O)CC7)CC5)CC6)nc4c3F)c12 (stereo partly drawn) [Compound 96, [(3S,8S)-8-[[7-(8-Ethyl-7-fluoro-3-hydroxy-1-naphthyl)-8-fluoro-4-[(3R)-3-hydroxyl-3-methyl-1-piperidyl]pyrido[4,3-d]pyrimidin-2-yl]oxymethyl]-1,2,3,5,6,7-hexahydropyrrolizin-3-yl]methyl4-[[4-[1-(2,6-dioxo-3-piperidyl)-4-fluoro-3-methyl-2-oxo-benzimidazol-5-yl]-1-piperidyl]methyl]piperidine-1-carboxylate] | < 1 | < 100 | < 10 | > 50 |
| C#Cc1c(F)ccc2cc(O)cc(-c3ncc4c(N5CCC[C@@](C)(O)C5)nc(OCC5(CN6CCC7(CC6)CCN(c6ccc8c(c6)n(C)c(=O)n8C6CCC(=O)NC6=O)CC7)CC5)nc4c3F)c12 (stereo partly shown) [Compound 52] | ≥ 10 | < 100 | < 10 |  |
| C#Cc1c(F)ccc2cc(O)cc(-c3ncc4c(N5CCC[C@@](C)(O)C5)nc(OCC5(CN6CCC7(CC6)CC(N6CCC(c8cccc9c8n(C)c(=O)n9C8CCC(=O)NC8=O)CC6)C7)CC5)nc4c3F)c12 (stereo partly shown) [Compound 64] | < 1 | < 100 | < 10 |  |
| CCc1c(F)ccc2cc(O)cc(-c3ncc4c(N5CCC[C@@](C)(O)C5)nc(OC[C@]56CCCN5[C@H](COC(=O)N5CCC(CCOc7ccc8c(c7)n(C)c(=O)n8C7CCC(=O)NC7=O)CC5)CC6)nc4c3F)c12 (stereo partly drawn) [Compound 300, ((3S,7aR)-7a-(((7-(8-ethyl-7-fluoro-3-hydroxynaphthalen-1-yl)-8-fluoro-4-((R)-3-hydroxy-3-methylpiperidin-1-yl)pyrido[4,3-d]pyrimidin-2-yl)oxy)methyl)hexahydro-1H-pyrrolizin-3-yl)methyl 4-(2-((1-(2,6-dioxopiperidin-3-yl)-3-methyl-2-oxo-2,3-dihydro-1H-benzo[d]imidazol-5-yl)oxy)ethyl)piperidine-1-carboxylate] | < 1 | < 100 | < 10 |  |
| CCc1c(F)ccc2cc(O)cc(-c3ncc4c(N5CCC[C@@](C)(O)C5)nc(OC[C@@]56CCCN5[C@H](COc5ccc(CN7CCC(c8ccc9c(c8)n(C)c(=O)n9C8CCC(=O)NC8=O)CC7)cc5)CC6)nc4c3F)c12 (stereo partly drawn) [Compound 458, 3-(5-(1-(4-(((3S,7aS)-7a-(((7-(8-ethyl-7-fluoro-3-hydroxynaphthalen-1-yl)-8-fluoro-4-((R)-3-hydroxy-3-methylpiperidin-1-yl)pyrido[4,3-d]pyrimidin-2-yl)oxy)methyl)hexahydro-1H-pyrrolizin-3-yl)methoxy)benzyl)piperidin-4-yl)-3-methyl-2-oxo-2,3-dihydro-1H-benzo[d]imidazol-1-yl)piperidine-2,6-dione] | < 1 | < 100 | 10 to 100 |  |

— patent US12599672B2, “KRAS proteolysis targeting chimeras” (PAQ Therapeutics Inc., priority 2023, dated 2026)
